Here are results for four compounds from publication PMC11084348, “Characterization of Phenolic Compounds in Extra Virgin Olive Oil from Granada (Spain) and Evaluation of Its Neuroprotective Action” (International Journal of Molecular Sciences, 2024).

Assay [1] addresses T1, acetylcholinesterase from Electrophorus electricus (Electrophorus electricus, UniProt O42275).
T1 construct: purchased Merck (Madrid, Spain)
Put plainly: AChE inhibition assay (Ellman, spectrophotometric). In kind it is biochemical. Conditions: for IC50: 5 concentrations of standard, linear regression of dose-response curve. From the text: For the COX-2 assay, a COX-2 Inhibitor Screening Kit from Merck (Madrid, Spain) was purchased. For the analysis of AChE inhibition, acetylcholinesterase from Electrophorus electricus (lyophilized powder, 500 U), Base Trizma® (99.9% purity), chloridric acid (37%), Ellman Reactive (5,5′-dithiobis-(2-nitrobenzoic) acid, DTNB, 98% purity), acetylthiocholine iodide (≥98% purity), and physostigmine salicylate were purchased from Merck (Madrid, Spain). In both assays, a spectrophotometer from BioTek Synergy from Agilent Technologies (Santa Clara, CA, USA) was used.
AChE inhibitory activity was measured using a spectrophotometric assay described by Ellman et al. with slight modifications. First, in a 96-well plate, the AChE enzyme (10 mU mL^−1) (dissolved in 50 mM Tris-HCl buffer, pH 8.0) was incubated with the DTNB (150 μM) and 12 μL aliquots of the corresponding EVOO extracts in a final reaction volume of 250 μL. In addition, the inhibition control (physostigmine), the standards Ol, Lut, and Hyty, and the positive control of AChE activity (substituting the extracts/standards by the solvent of the extracts: ethanol:water (1:1, v/v) were tested. After 15 min of incubation at 30 °C, the substrate (acetylthiocholine iodide 150 μM, ATCh) was added, and AChE activity was determined by measuring the increase in absorbance reading at 405 nm for 15 min at 30 °C in a spectrophotometer (BioTek Synergy, Agilent Technologies, Santa Clara, CA, USA).
The AChE inhibitory activity of the EVOO extracts was expressed as a percentage of inhibition with respect to the positive activity control, indicating the average value obtained by analyzing the 3 extraction replicates obtained from each EVOO extract and analyzing them in duplicate. IC50, the concentration of a standard bioactive compound capable of inhibiting 50% of AChE activity, was determined by measuring 5 different concentrations of the standard compound in the reaction medium and interpolating in the linear regression of the dosis-response curve.

The target in another assay is T2, COX-2 (Homo sapiens, UniProt P35354).
T2 construct: purchased Merck (Madrid, Spain)
T2 sequence (P35354 18-604): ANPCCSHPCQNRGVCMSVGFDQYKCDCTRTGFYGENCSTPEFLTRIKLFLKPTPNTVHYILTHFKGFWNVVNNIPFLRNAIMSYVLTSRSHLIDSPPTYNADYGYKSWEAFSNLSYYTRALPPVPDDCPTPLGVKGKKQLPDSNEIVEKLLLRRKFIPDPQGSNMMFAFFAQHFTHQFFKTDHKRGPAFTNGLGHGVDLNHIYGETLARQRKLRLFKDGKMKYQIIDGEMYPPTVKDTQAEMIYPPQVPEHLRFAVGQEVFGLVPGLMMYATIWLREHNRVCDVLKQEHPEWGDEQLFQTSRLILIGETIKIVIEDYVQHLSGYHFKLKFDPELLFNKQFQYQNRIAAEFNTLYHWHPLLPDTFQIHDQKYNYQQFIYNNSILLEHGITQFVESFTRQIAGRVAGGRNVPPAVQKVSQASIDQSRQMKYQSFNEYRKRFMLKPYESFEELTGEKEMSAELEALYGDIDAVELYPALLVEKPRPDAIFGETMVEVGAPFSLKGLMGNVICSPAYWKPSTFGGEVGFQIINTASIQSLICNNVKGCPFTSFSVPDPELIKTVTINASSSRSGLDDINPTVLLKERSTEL
Put plainly: biochemical. The note with it: 5 concentrations of standard, linear regression of dose-response curve. The protocol:
For the COX-2 assay, a COX-2 Inhibitor Screening Kit from Merck (Madrid, Spain) was purchased. […] In both assays, a spectrophotometer from BioTek Synergy from Agilent Technologies (Santa Clara, CA, USA) was used.
The COX-2 assay was performed using the COX fluorescent inhibitor assay kit with slight modifications and measured spectrophotometrically (BioTek Synergy, Agilent Technologies, Santa Clara, CA, USA). EVOO extracts were diluted (1/200) in ethanol:water (1:1, v/v). Briefly, the assay was carried out in a 96-well plate, in which 10 μL of diluted EVOO extracts and 80 μL of the reaction mix (containing the cofactor, the probe, and the COX-2 enzyme) were added. […] EVOO extracts were analyzed in duplicate.

T1 sequence (O42275 24-633): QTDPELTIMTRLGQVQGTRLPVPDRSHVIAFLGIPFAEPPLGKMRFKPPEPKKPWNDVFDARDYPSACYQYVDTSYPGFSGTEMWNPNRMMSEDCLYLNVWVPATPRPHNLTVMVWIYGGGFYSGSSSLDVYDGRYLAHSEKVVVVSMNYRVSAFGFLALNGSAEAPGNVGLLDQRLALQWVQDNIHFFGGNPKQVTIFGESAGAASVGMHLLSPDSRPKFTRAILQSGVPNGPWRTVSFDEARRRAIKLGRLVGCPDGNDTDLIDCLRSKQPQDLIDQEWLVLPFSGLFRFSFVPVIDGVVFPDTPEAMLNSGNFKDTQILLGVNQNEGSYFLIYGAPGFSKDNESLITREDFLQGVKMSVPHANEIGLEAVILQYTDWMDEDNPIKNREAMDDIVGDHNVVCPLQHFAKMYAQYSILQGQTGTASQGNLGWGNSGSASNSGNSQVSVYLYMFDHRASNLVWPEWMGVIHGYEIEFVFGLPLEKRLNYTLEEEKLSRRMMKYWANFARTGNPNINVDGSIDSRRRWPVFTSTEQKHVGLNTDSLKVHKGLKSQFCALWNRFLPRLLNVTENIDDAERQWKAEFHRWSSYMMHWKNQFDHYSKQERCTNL

As for `OCCc1ccc(O)c(O)c1` [Hyty, hydroxytyrosol], the IC50 in assay [1] was found to be 328 µM; on COX-2, 10.8 µM.
For `C/C=C1/[C@H](O[C@@H]2O[C@H](CO)[C@@H](O)[C@H](O)[C@H]2O)OC=C(C(=O)OC)[C@H]1CC(=O)OCCc1ccc(O)c(O)c1` [Ol, oleuropein], the results for the IC50 (in assay [1]; on COX-2) were 417 µM and 9.65 µM, respectively.
For the compound `O=c1cc(-c2ccc(O)c(O)c2)oc2cc(O)cc(O)c12` [Lut, luteolin], the IC50 in assay [1] was 145 µM.
In the case of `CNC(=O)Oc1ccc2c(c1)[C@]1(C)CCN(C)[C@@H]1N2C` [Physostigmin, physostigmine salicylate], the inhibition at 0.025 µM in assay [1] (0.025 µM of physostigmin in 250 μL of medium reaction containing 2.5 mU of AChE) was 48.5 ± 1.69%.
